The values that follow come from patent US20250066338A1, “CERTAIN 3-AZABICYCLO[3.1.0]HEXANES AS GLP-1 RECEPTOR MODULATORS” (AstraZeneca AB, priority 2021, published 2025).

Molecules are shown by their SMILES.

Assay [1] deals with GLP-1R in EndoC-βH1 cells (Homo sapiens (Human), UniProt P43220). In words: EndoC cAMP Accumulation Assay. Particulars: EndoC-βH1 human pancreatic beta cell line; HTRF cAMP accumulation. Format: cell-based. The source says: EndoC cAMP Accumulation Assay
A HTRF cAMP assay (cAMP Gs dynamic kit; CisoBio Cat #62AM4PEJ) was used to identify agonists of GLP-1R in a pancreatic insulinoma cell line (EndoC-βH1). […] EndoC-βH1 cells have detectable GLP-1R messenger ribonucleic acid (mRNA) as detected by quantitative polymerase chain reaction (qPCR). […] The EndoC-βH1 cell line is a valid model of human beta cells and applicable for screenings to identify novel drug target candidates (Mol. Metab., 2018, 8, 144-157). CisBio HTRF cAMP kits are based on a competitive immunoassay using cryptate-labelled anti-cAMP antibody and d2-labeled cAMP. The detection kit is intended for the direct quantitative determination of cAMP. The specific signal (i.e. energy transfer) is inversely proportional to the concentration of cAMP in the standard or sample. Test compounds (10 mM in DMSO) were diluted into assay buffer (HBSS (Sigma #H8264) supplemented with 25 mM HEPES (Gibco #15630, pH 7.4), 0.1% BSA (Sigma #A3059) and 0.5 mM IBMX (Sigma #17018) included fresh on the day of the assay) into 96 well U-bottom plates (Greiner #650201). Diluted compounds were transferred to ECHO source polypropylene plates (Labcyte #P-05525) and dose response curves were dispensed acoustically using ECHO 550 into black shallow-well u-bottom 384-well HTRF Assay Plates (Corning 4514).
Cryovials of EndoC-H1 (supplied at 1×10e^7 cells/vial) were used directly for screening. The cryovials and were removed from N2 (1) and thawed rapidly in a 37° C. water bath. The cells were resuspended in assay buffer and centrifuged at 300 g for 5 min. Cells were resuspended in assay buffer at the appropriate concentration, typically at 12e5 cells per mL (3000 cells per well, dependent on cell batch) and 2.5 μL diluted cells were added to all wells of destination plate by Multidrop combi reagent dispenser (Thermofisher). The plates were incubated at rt for 30 min. The assay was stopped by adding 2.5 μL anti-cAMP cryptate solution to all wells and 2.5 μL cAMP-d2 solution (both diluted 1:20 in lysis buffer) to columns 1-22 by Combi drop. A volume of 2.5 μL cAMP-d2 solution was added to wells E23 to P24 and 2.5 μL lysis buffer added to wells A23 to D24 by multichannel pipette. The plates were incubated at rt for 1 h and read on an Envision plate reader using excitation wavelength of 320 nm and emission of […] and 660 nm.
Raw data from Envision is converted to % DeltaF according to the manufacturer's instructions. Dose response curves are analysed via 4-Parameter Logistical Analysis and assay plate Z′ values obtained. Samples are graphed as percentage (%) activation plots compared to GIP (1-42, Bachem H-5645) with assay window defined by negative control as basal cell cAMP levels and positive control are defined by maximum GIP (82.5 nM) signal. GLP1 (7-36 amide, Bachem H-6795) dose response curve was included on all plates.

The next assay addresses human GLP-1R receptor (Homo sapiens (Human), UniProt P43220, L260F). In words: CHOK1 GLP-1R cAMP Assay. Particulars: CHO-K1 cell line stably expressing human GLP-1R; HTRF cAMP; agonist activity. Format: cell-based. The method, then:
A cell line stably expressing the human GLP-1R receptor (NM 002062.5, including the naturally-occurring variant Leu260Phe) in a CHO-K1 (ATCC® CCL-61™) was used for assay.
GLP-1 receptor mediated agonist activity was determined in a cell based assay measuring cyclic adenosine monophosphate (cAMP) levels in cells using Homogeneous Time-Resolved Fluorescence (HTRF) cAMP detection kit (CisBio catalog #62AM4PEC, cAMP Gs Dynamic range kit). The cAMP detection method is based on a competitive immunoassay, in which cAMP produced by the cells and cAMP labeled with the dye d2 compete for binding to a Europium-Cryptate-labeled anti-cAMP antibody. The specific HTRF signal is inversely proportional to the concentration of cAMP.
Compounds were added to individual well in 384 well-assay plates (Greiner #784076) using an Echo (LabCyte) dispenser from 10 mM stocks. Varying concentration of compounds were added to wells, and DMSO was used to normalize each well to a volume of 100 nL. A dose response curve of GLP1(7-36)NH2 (Bachem H-6795) was included in each run. 5 μL of cAMP concentration response standards are applied in specified wells in the assay plates. Cryo-preserved cells are thawed and resuspended in assay buffer pre-heated to 37° C. (20 mM HEPES pH 7.4, lx Hank's Balanced Salt Solution (HBSS, Life Technologies #14065) supplemented with 0.1% (w/v) bovine serum albumin (Sigma, A-7030). Cells were centrifuged at 250*g for 5 min at rt, and resuspended in room tempered assay buffer to a final density of 0.16*10^6 cell/mL, to deliver 800 cells/well. 5 μL of assay buffer with 1 mM 3-isobutyl-1-methylxanthin (IBMX; Sigma cat I-7018) was dispensed per well in assay plates using a multidrop combi (Thermo Scientific) subsequently 5 μL of cell suspension was distributed to relevant wells in the assay using a multidrop dispenser. Assay plates were incubated 20 min at rt.
Detection reagents, Europium-Cryptate-labeled anti-cAMP antibody and cAMP labeled with the dye d2, are diluted in lysis buffer, provided by the manufacturer. 5 μL of each detection reagent is supplemented to each assay well using a multidrop dispenser. Assay plates are incubated in the dark for at least one h. The HTRF signal is measured using the HTRF module (excitation: 337 nm, emission A: 665 nm and emission B: 620 nm) in Pherastar FSX (BMG Labtech).
Raw data were converted to pM cAMP using the cAMP standard curve included in each run. Converted data were further analyzed in Genedata Screener (Genedata) and EC50 determinations were made from agonist dose-response curves analyzed with a curve fitting program using a 4-parameter logistic dose response equation (Equation y=A+((B−A)/1+((C/x)^D))) where A is no stimulation, B is full stimulation, C is the EC50 and D is the Hill slope). The percent effect was determined relative to a saturating concentration of a full GLP-1R agonist (GLP1(7-36)NH2 has 100% effect in this assay setup).

The target of assay [2] is human phosphodiesterase-3A (Homo sapiens (Human), UniProt Q14432). In words: PDE3 Assay. Format: biochemical. Particulars: human recombinant enzyme expressed in Sf9 cells; formation of 5'AMP from cAMP. The method, then: Evaluation of the effects of compounds on the activity of the human phosphodiesterase-3A is quantified by measuring the formation of 5′AMP from cAMP using a human recombinant enzyme expressed in a clonal isolate of Spodoptera frugiperda cells (Sf9) cells.
Chain of human phosphodiesterase-3A (Q14432 whole entry): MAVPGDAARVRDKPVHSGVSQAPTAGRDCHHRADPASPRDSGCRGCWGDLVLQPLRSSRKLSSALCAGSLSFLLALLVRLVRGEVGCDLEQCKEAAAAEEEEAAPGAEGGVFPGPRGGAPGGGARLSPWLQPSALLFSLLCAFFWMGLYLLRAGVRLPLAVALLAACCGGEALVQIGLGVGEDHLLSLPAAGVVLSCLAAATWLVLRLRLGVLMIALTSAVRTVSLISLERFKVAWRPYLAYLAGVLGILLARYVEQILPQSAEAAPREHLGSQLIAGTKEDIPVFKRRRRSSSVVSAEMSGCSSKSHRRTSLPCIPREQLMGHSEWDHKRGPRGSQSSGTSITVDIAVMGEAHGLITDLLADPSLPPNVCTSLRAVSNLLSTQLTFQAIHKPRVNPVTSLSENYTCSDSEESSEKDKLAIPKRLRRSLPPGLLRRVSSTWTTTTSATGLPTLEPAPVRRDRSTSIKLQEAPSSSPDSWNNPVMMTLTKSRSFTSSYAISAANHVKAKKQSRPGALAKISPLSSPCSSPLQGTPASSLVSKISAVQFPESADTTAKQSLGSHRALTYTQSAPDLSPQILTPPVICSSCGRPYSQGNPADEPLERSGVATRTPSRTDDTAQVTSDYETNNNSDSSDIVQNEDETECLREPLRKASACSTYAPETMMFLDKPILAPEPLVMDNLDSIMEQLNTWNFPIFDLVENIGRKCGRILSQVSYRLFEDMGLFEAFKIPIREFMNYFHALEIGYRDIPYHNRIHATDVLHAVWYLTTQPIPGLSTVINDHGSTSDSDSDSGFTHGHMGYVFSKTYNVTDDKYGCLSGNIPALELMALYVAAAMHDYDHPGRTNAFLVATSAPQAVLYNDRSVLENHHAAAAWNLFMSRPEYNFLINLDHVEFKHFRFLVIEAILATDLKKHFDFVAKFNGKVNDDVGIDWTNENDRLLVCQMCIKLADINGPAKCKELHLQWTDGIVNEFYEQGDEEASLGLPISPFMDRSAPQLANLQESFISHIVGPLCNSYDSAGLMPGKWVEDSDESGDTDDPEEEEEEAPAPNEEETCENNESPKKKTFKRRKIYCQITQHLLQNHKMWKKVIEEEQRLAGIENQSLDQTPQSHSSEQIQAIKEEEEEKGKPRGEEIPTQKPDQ
The test compound, reference compound or water (control) are added to a buffer containing 40 mM tris(hydroxymethyl)aminomethane (Tris)/HCl (pH 7.4) and 8 mM MgCl2, 450 nMcAMP and 0.25 μCi [^3H]cAMP.
Thereafter, the reaction is initiated by addition of the enzyme (about 1 U) and the mixture is incubated for 20 min at 22° C.
For basal control measurements, the enzyme is omitted from the reaction mixture. Following incubation SPA beads are added. After 30 min at 22° C. under shaking, the amount of [^3H]^+ 5′AMP is quantified with a scintillation counter (Topcount, Packard).
The results are expressed as a percent inhibition of the control enzyme activity. The standard inhibitory reference compound is milrinone (CAS number 78415-72-2), which is tested in each experiment at several concentrations to obtain an inhibition curve from which its IC50 value is calculated.

Chain of human GLP-1R receptor (P43220 24-463 L260F): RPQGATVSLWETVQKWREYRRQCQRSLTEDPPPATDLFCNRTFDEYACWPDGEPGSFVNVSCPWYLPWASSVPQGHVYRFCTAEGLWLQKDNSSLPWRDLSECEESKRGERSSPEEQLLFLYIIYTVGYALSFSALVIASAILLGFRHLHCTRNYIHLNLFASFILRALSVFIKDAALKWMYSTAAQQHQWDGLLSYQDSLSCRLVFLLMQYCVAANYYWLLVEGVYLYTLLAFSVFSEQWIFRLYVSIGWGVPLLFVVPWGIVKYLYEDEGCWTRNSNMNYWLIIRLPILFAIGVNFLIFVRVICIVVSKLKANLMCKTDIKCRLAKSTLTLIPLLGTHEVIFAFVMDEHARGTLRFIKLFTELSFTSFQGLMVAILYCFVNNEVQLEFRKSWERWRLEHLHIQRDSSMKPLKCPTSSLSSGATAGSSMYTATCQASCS
Chain of GLP-1R in EndoC-βH1 cells (P43220 24-463): as the sequence (P43220 24-463 L260F) above, with F237L counted along it

For the compound `O=C(O)c1ccc2nc(CN3C[C@@H]4[C@H](C3)[C@H]4c3cccc(OCc4ccc(Cl)cc4F)n3)n(C[C@@H]3CCO3)c2c1` [Example 13, 2-(((1R,5S,6S)-6-(6-((4-Chloro-2-fluorobenzyl)oxy)pyridin-2-yl)-3-azabicyclo[3.1.0]hexan-3-yl)methyl)-1-(((S)-oxetan-2-yl)methyl)-1H-benzo[d]imidazole-6-carboxylic acid], the results for the half-maximal effective concentration (EC50) (in assay [1]; at human GLP-1R receptor) were 23 nM and 100 nM, respectively. Besides, the concentration for half-maximal inhibition (IC50) in assay [2] is above 100000 nM.

With `CCn1cncc1Cn1c(CN2C[C@@H]3[C@H](C2)[C@H]3c2nc(OCc3ccc(Cl)cc3F)ccc2F)nc2c(OC)cc(C(=O)O)cc21` [Example 17, 2-(((1R,5S,6r)-6-(6-((4-Chloro-2-fluorobenzyl)oxy)-3-fluoropyridin-2-yl)-3-azabicyclo[3.1.0]hexan-3-yl)methyl)-1-((1-ethyl-1H-imidazol-5-yl)methyl)-4-methoxy-1H-benzo[d]imidazole-6-carboxylic acid], the EC50 in assay [1] is 9.3 nM; on human GLP-1R receptor it was 15 nM. Further, in assay [2], the IC50 is above 100000 nM.

Consider `COc1cc(C(=O)O)cc2c1nc(CN1C[C@@H]3[C@H](C1)[C@H]3c1nc(OCc3ccc(Cl)cc3F)ccc1C)n2C[C@@H]1CCO1` [Example 19, 2-(((1R,5S,6S)-6-(6-((4-Chloro-2-fluorobenzyl)oxy)-3-methylpyridin-2-yl)-3-azabicyclo[3.1.0]hexan-3-yl)methyl)-4-methoxy-1-(((S)-oxetan-2-yl)methyl)-1H-benzo[d]imidazole-6-carboxylic acid], for which the concentration giving a half-maximal response (EC50) in assay [1] came out at 9.6 nM; at human GLP-1R receptor, 19 nM. Besides, the 50% inhibitory concentration (IC50) in assay [2] was above 100000 nM.

Consider `N#Cc1ccc(COc2cccc(C3=CCN(Cc4nc5ccc(C(=O)O)cc5n4C[C@@H]4CCO4)CC3)n2)c(F)c1` [Ref Comp A, reference compound], for which, in assay [2], the concentration for half-maximal inhibition (IC50) is 4000 nM.

`N#Cc1ccc(COc2cccc(C3CCN(Cc4nc5ccc(C(=O)O)cc5n4C[C@H]4CCO4)CC3)n2)c(F)c1` [Ref Comp B, reference compound]: the IC50 in assay [2] was determined as 11000 nM.

Regarding `Cc1cc(Cc2nc3ccc(C(=O)O)cc3n2C[C@@H]2CCO2)c(F)cc1-c1cccc(OCc2ccc(C#N)cc2F)n1` [Ref Comp D, reference compound], the concentration for half-maximal inhibition (IC50) in assay [2] came to 5000 nM.
